Reference: PubChem BioAssay (NCI)
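Tested at 5 concentrations; 48 h exposure; 96-well plates; endpoints linearly interpolated, else capped at highest concentration. GI50: concentration for 50% inhibition of growth. Definition used: TGI = concentration required for complete inhibition of growth.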

These compounds were tested on SK-MEL-5 melanoma (assay: NCI anticancer screen, dose series, 48 h).

Point of comparison: `COc1ccc2c(=O)cc(-c3ccncc3)oc2c1OC`, TGI 56.8 µM. Against it:
- COc1cc2ccccc2oc1=O — higher, > 100 µM
- Nc1nc(N)c2nc(CNc3ccc(C(=O)NC(CC(=O)O)C(=O)O)cc3)cnc2n1 (stereo not given) — higher, > 100 µM
- CC(=O)OC[C@]12CC[C@@H](C(=O)CBr)[C@@H]1[C@H]1CC[C@@H]3[C@@]4(C)CCCNC(C)(C)[C@@H]4CC[C@@]3(C)[C@]1(C)CC2 — 3.6-fold lower, 15.8 µM
- COc1cc2c3c(n(CCCCN)c(=O)c2cc1OC)-c1cc2c(cc1C3=O)OCO2 — 8.9-fold lower, 6.4 µM
- N#CCCN(CCCN(CCCN(C(=O)Nc1ccccc1)c1ccccc1)C(=O)Nc1ccccc1)C(=O)Nc1ccccc1 — higher, > 100 µM
- C=CCC1(O)c2ccccc2C(=O)c2c(NCCN(CC(=O)OCC)CC(=O)OCC)cccc21 (stereo not given) — higher, > 100 µM
- COc1cccc(-n2nc(C)c3c(N/N=C(\C)c4ccncc4)ncnc32)c1 — not separable, > 25 µM
- NC(=O)c1ccccc1Nc1ccc2nnc(-c3ccncc3)n2n1 — 3.4-fold lower, 16.9 µM
- CCn1cnc(C[C@H](NC(=O)[C@@H](NC(=O)Nc2cc(C(F)(F)F)cc(C(F)(F)F)c2)C(C)C)C(=O)OC)c1 — not separable, > 10 µM
- O=C(Nc1cccc(-n2cc(-c3ccncc3)c(-c3ccc(Cl)c(O)c3)n2)c1)c1ccc(N2CCOCC2)c(C(F)(F)F)c1 — 5.6-fold lower, 10.2 µM
- COc1cccc2c1ccc1nc3cccc(C(=O)N[C@H](C)CN(C)C)c3nc12 — 170-fold lower, 0.342 µM
- COc1ccc(/C=C/C(=O)c2ccc(O)c(CN3CCN(c4cc5c(cc4F)c(=O)c(C(=O)O)cn5C4CC4)CC3)c2)cc1 — higher, > 100 µM
- NC(=O)c1ccc(I)c(N=O)c1 — higher, > 100 µM
- CC(=O)C(=Cc1ccc(C=C(C(C)=O)C(C)=O)cc1)C(C)=O — 17-fold lower, 3.36 µM
- COC(=O)c1ccccc1OCc1cc(=O)oc2ccc(C)cc12 — higher, > 100 µM
- COc1ccc(-c2nc(-c3ccccc3)c(-c3ccccc3)[nH]2)cc1OC1CCCC1 — higher, > 100 µM
- O=C(O)c1cc2ccc3ccccc3c2oc1=O — higher, > 100 µM
- O=[N+]([O-])c1ccc2c(c1)Cc1cc(N=Cc3ccc4c(c3)OCO4)ccc1-2 — higher, > 100 µM
- COC(=O)[C@@]12OC[C@]34[C@H]([C@@H](O)[C@@H]1O)[C@@]1(C)[C@H](O)C(=O)C=C(C)[C@@H]1C[C@H]3OC(=O)C(OC(C)=O)[C@@H]24 (stereo not given in full) — 1400-fold lower, 0.0406 µM

Point of comparison: `COc1ccc(/C=C/C(=O)c2ccc(O)c(CN3CCN(c4cc5c(cc4F)c(=O)c(C(=O)O)cn5C4CC4)CC3)c2)cc1`, GI50 1.57 µM. Against it:
- Nc1nc(N)c2nc(CNc3ccc(C(=O)NC(CC(=O)O)C(=O)O)cc3)cnc2n1 (stereo not given) — 2.1-fold higher, 3.33 µM
- CC(=O)OC[C@]12CC[C@@H](C(=O)CBr)[C@@H]1[C@H]1CC[C@@H]3[C@@]4(C)CCCNC(C)(C)[C@@H]4CC[C@@]3(C)[C@]1(C)CC2 — 2.9-fold higher, 4.55 µM
- COc1cc2c3c(n(CCCCN)c(=O)c2cc1OC)-c1cc2c(cc1C3=O)OCO2 — within 1.5-fold, 1.6 µM
- N#CCCN(CCCN(CCCN(C(=O)Nc1ccccc1)c1ccccc1)C(=O)Nc1ccccc1)C(=O)Nc1ccccc1 — higher, > 100 µM
- C=CCC1(O)c2ccccc2C(=O)c2c(NCCN(CC(=O)OCC)CC(=O)OCC)cccc21 (stereo not given) — higher, > 100 µM
- COc1cccc(-n2nc(C)c3c(N/N=C(\C)c4ccncc4)ncnc32)c1 — 1.9-fold higher, 3.02 µM
- NC(=O)c1ccccc1Nc1ccc2nnc(-c3ccncc3)n2n1 — 3-fold higher, 4.74 µM
- CCn1cnc(C[C@H](NC(=O)[C@@H](NC(=O)Nc2cc(C(F)(F)F)cc(C(F)(F)F)c2)C(C)C)C(=O)OC)c1 — 2.7-fold higher, 4.31 µM
- O=C(Nc1cccc(-n2cc(-c3ccncc3)c(-c3ccc(Cl)c(O)c3)n2)c1)c1ccc(N2CCOCC2)c(C(F)(F)F)c1 — 1.6-fold higher, 2.47 µM
- COc1cccc2c1ccc1nc3cccc(C(=O)N[C@H](C)CN(C)C)c3nc12 — 13-fold lower, 0.125 µM
- NC(=O)c1ccc(I)c(N=O)c1 — 22-fold higher, 34.2 µM
- COc1ccc(-c2nc(-c3ccccc3)c(-c3ccccc3)[nH]2)cc1OC1CCCC1 — higher, > 100 µM
- COC(=O)[C@@]12OC[C@]34[C@H]([C@@H](O)[C@@H]1O)[C@@]1(C)[C@H](O)C(=O)C=C(C)[C@@H]1C[C@H]3OC(=O)C(OC(C)=O)[C@@H]24 (stereo not given in full) — 97-fold lower, 0.0162 µM

The compounds below were run on SF-268 CNS (assay: NCI anticancer screen, dose series, 48 h).

Point of comparison: `CCn1cnc(C[C@H](NC(=O)[C@@H](NC(=O)Nc2cc(C(F)(F)F)cc(C(F)(F)F)c2)C(C)C)C(=O)OC)c1`, TGI 3.4 µM. Against it:
- COc1cc2ccccc2oc1=O — higher, > 100 µM
- Nc1nc(N)c2nc(CNc3ccc(C(=O)NC(CC(=O)O)C(=O)O)cc3)cnc2n1 (stereo not given) — higher, > 100 µM
- CC(=O)OC[C@]12CC[C@@H](C(=O)CBr)[C@@H]1[C@H]1CC[C@@H]3[C@@]4(C)CCCNC(C)(C)[C@@H]4CC[C@@]3(C)[C@]1(C)CC2 — 7-fold higher, 23.9 µM
- COc1cc2c3c(n(CCCCN)c(=O)c2cc1OC)-c1cc2c(cc1C3=O)OCO2 — 1.6-fold higher, 5.55 µM
- N#CCCN(CCCN(CCCN(C(=O)Nc1ccccc1)c1ccccc1)C(=O)Nc1ccccc1)C(=O)Nc1ccccc1 — higher, > 100 µM
- C=CCC1(O)c2ccccc2C(=O)c2c(NCCN(CC(=O)OCC)CC(=O)OCC)cccc21 (stereo not given) — higher, > 100 µM
- COc1cccc(-n2nc(C)c3c(N/N=C(\C)c4ccncc4)ncnc32)c1 — higher, > 25 µM
- NC(=O)c1ccccc1Nc1ccc2nnc(-c3ccncc3)n2n1 — 6.2-fold higher, 21 µM
- O=C(Nc1cccc(-n2cc(-c3ccncc3)c(-c3ccc(Cl)c(O)c3)n2)c1)c1ccc(N2CCOCC2)c(C(F)(F)F)c1 — higher, > 50 µM
- COc1cccc2c1ccc1nc3cccc(C(=O)N[C@H](C)CN(C)C)c3nc12 — 3.7-fold lower, 0.916 µM
- COc1ccc(/C=C/C(=O)c2ccc(O)c(CN3CCN(c4cc5c(cc4F)c(=O)c(C(=O)O)cn5C4CC4)CC3)c2)cc1 — higher, > 100 µM
- NC(=O)c1ccc(I)c(N=O)c1 — higher, > 100 µM
- COc1ccc2c(=O)cc(-c3ccncc3)oc2c1OC — 27-fold higher, 91.7 µM
- CC(=O)C(=Cc1ccc(C=C(C(C)=O)C(C)=O)cc1)C(C)=O — within 1.5-fold, 3.97 µM
- COC(=O)c1ccccc1OCc1cc(=O)oc2ccc(C)cc12 — higher, > 82.7 µM
- COc1ccc(-c2nc(-c3ccccc3)c(-c3ccccc3)[nH]2)cc1OC1CCCC1 — higher, > 100 µM
- O=C(O)c1cc2ccc3ccccc3c2oc1=O — higher, > 100 µM
- O=[N+]([O-])c1ccc2c(c1)Cc1cc(N=Cc3ccc4c(c3)OCO4)ccc1-2 — higher, > 100 µM
- COC(=O)[C@@]12OC[C@]34[C@H]([C@@H](O)[C@@H]1O)[C@@]1(C)[C@H](O)C(=O)C=C(C)[C@@H]1C[C@H]3OC(=O)C(OC(C)=O)[C@@H]24 (stereo not given in full) — 15-fold lower, 0.231 µM

Point of comparison: `COc1ccc(/C=C/C(=O)c2ccc(O)c(CN3CCN(c4cc5c(cc4F)c(=O)c(C(=O)O)cn5C4CC4)CC3)c2)cc1`, GI50 2.32 µM. Against it:
- Nc1nc(N)c2nc(CNc3ccc(C(=O)NC(CC(=O)O)C(=O)O)cc3)cnc2n1 (stereo not given) — 4.4-fold lower, 0.528 µM
- CC(=O)OC[C@]12CC[C@@H](C(=O)CBr)[C@@H]1[C@H]1CC[C@@H]3[C@@]4(C)CCCNC(C)(C)[C@@H]4CC[C@@]3(C)[C@]1(C)CC2 — 2.6-fold higher, 5.98 µM
- COc1cc2c3c(n(CCCCN)c(=O)c2cc1OC)-c1cc2c(cc1C3=O)OCO2 — 2.9-fold lower, 0.801 µM
- N#CCCN(CCCN(CCCN(C(=O)Nc1ccccc1)c1ccccc1)C(=O)Nc1ccccc1)C(=O)Nc1ccccc1 — 32-fold higher, 74.8 µM
- C=CCC1(O)c2ccccc2C(=O)c2c(NCCN(CC(=O)OCC)CC(=O)OCC)cccc21 (stereo not given) — higher, > 100 µM
- COc1cccc(-n2nc(C)c3c(N/N=C(\C)c4ccncc4)ncnc32)c1 — higher, > 25 µM
- NC(=O)c1ccccc1Nc1ccc2nnc(-c3ccncc3)n2n1 — 2.4-fold higher, 5.56 µM
- CCn1cnc(C[C@H](NC(=O)[C@@H](NC(=O)Nc2cc(C(F)(F)F)cc(C(F)(F)F)c2)C(C)C)C(=O)OC)c1 — within 1.5-fold, 1.76 µM
- O=C(Nc1cccc(-n2cc(-c3ccncc3)c(-c3ccc(Cl)c(O)c3)n2)c1)c1ccc(N2CCOCC2)c(C(F)(F)F)c1 — 2.4-fold higher, 5.58 µM
- COc1cccc2c1ccc1nc3cccc(C(=O)N[C@H](C)CN(C)C)c3nc12 — 35-fold lower, 0.0654 µM
- NC(=O)c1ccc(I)c(N=O)c1 — 27-fold higher, 62.1 µM
- COc1ccc(-c2nc(-c3ccccc3)c(-c3ccccc3)[nH]2)cc1OC1CCCC1 — higher, > 100 µM
- COC(=O)[C@@]12OC[C@]34[C@H]([C@@H](O)[C@@H]1O)[C@@]1(C)[C@H](O)C(=O)C=C(C)[C@@H]1C[C@H]3OC(=O)C(OC(C)=O)[C@@H]24 (stereo not given in full) — 54-fold lower, 0.0428 µM

Each compound was assayed on M14 melanoma (assay: NCI anticancer screen, dose series, 48 h).

Point of comparison: `COc1cc2c3c(n(CCCCN)c(=O)c2cc1OC)-c1cc2c(cc1C3=O)OCO2`, TGI 6.22 µM. Against it:
- COc1cc2ccccc2oc1=O — higher, > 100 µM
- Nc1nc(N)c2nc(CNc3ccc(C(=O)NC(CC(=O)O)C(=O)O)cc3)cnc2n1 (stereo not given) — higher, > 100 µM
- CC(=O)OC[C@]12CC[C@@H](C(=O)CBr)[C@@H]1[C@H]1CC[C@@H]3[C@@]4(C)CCCNC(C)(C)[C@@H]4CC[C@@]3(C)[C@]1(C)CC2 — within 1.5-fold, 6.66 µM
- N#CCCN(CCCN(CCCN(C(=O)Nc1ccccc1)c1ccccc1)C(=O)Nc1ccccc1)C(=O)Nc1ccccc1 — higher, > 100 µM
- C=CCC1(O)c2ccccc2C(=O)c2c(NCCN(CC(=O)OCC)CC(=O)OCC)cccc21 (stereo not given) — higher, > 100 µM
- COc1cccc(-n2nc(C)c3c(N/N=C(\C)c4ccncc4)ncnc32)c1 — higher, > 25 µM
- NC(=O)c1ccccc1Nc1ccc2nnc(-c3ccncc3)n2n1 — 4.3-fold higher, 26.5 µM
- CCn1cnc(C[C@H](NC(=O)[C@@H](NC(=O)Nc2cc(C(F)(F)F)cc(C(F)(F)F)c2)C(C)C)C(=O)OC)c1 — higher, > 10 µM

Point of comparison: `Nc1nc(N)c2nc(CNc3ccc(C(=O)NC(CC(=O)O)C(=O)O)cc3)cnc2n1` (stereo not given), GI50 0.556 µM. Against it:
- CC(=O)OC[C@]12CC[C@@H](C(=O)CBr)[C@@H]1[C@H]1CC[C@@H]3[C@@]4(C)CCCNC(C)(C)[C@@H]4CC[C@@]3(C)[C@]1(C)CC2 — 4.3-fold higher, 2.38 µM
- COc1cc2c3c(n(CCCCN)c(=O)c2cc1OC)-c1cc2c(cc1C3=O)OCO2 — 2.4-fold higher, 1.36 µM
- N#CCCN(CCCN(CCCN(C(=O)Nc1ccccc1)c1ccccc1)C(=O)Nc1ccccc1)C(=O)Nc1ccccc1 — higher, > 100 µM
- C=CCC1(O)c2ccccc2C(=O)c2c(NCCN(CC(=O)OCC)CC(=O)OCC)cccc21 (stereo not given) — higher, > 100 µM
- COc1cccc(-n2nc(C)c3c(N/N=C(\C)c4ccncc4)ncnc32)c1 — higher, > 25 µM
- NC(=O)c1ccccc1Nc1ccc2nnc(-c3ccncc3)n2n1 — 20-fold higher, 11.1 µM
- CCn1cnc(C[C@H](NC(=O)[C@@H](NC(=O)Nc2cc(C(F)(F)F)cc(C(F)(F)F)c2)C(C)C)C(=O)OC)c1 — 6.4-fold higher, 3.54 µM
